Read-outs that look alike come from different tables or passages of the source.
Legend:
APH(2”)-IVa [1] = system: APH(2”)-IVa; design: method as in PMID 19158087; details: read-out: Michaelis constant (Km) for ATP; cited from earlier work
APH(3’)-IIa = details: read-out: Michaelis constant (Km) for ATP; cited from earlier work
APH(3’)-IIb = system: APH(3’)-IIb; design: method as in earlier work; details: read-out: Michaelis constant (Km) for ATP; cited from earlier work
APH(3’)-IIIa [2] = biological target: APH(3’)-IIIa; design: method as in PMID 21573013, PMID 15388945; details: read-out: Inhibition constant; cited from earlier work
APH(9)-Ia = biological target: APH(9)-Ia; design: method as in PMID 21573013, PMID 15388945; details: read-out: Inhibition constant; cited from earlier work
APH(3’)-Ia = biological target: APH(3’)-Ia; design: method as in PMID 23758273; details: read-out: Inhibition constant; cited from earlier work
[3] = system: resistant hyper-permeable efflux mutant of E. coli (ΔtolC ΔbamB); details: cited from earlier work
APH(2”)-IVa [4] = biological target: T1, APH(2”)-IVa (Enterococcus casseliflavus, UniProt O68183); assay: biochemical; details: Ki (µM), inhibition constant, ATP-competitive; 0-2 mM MgATP, 100 µM kanamycin A, global fitting
APH(2”)-IVa [5] = biological target: T1, APH(2”)-IVa; assay: biochemical; assay type: binding; details: read-out: ΔTm (°C)
Description: Thermal shift assays were performed using an RTqPCR machine Mx3005P (Stratagene) in 96-well plates (Thermo-Fast low Profile, ThermoScientific) by mixing the protein at 5 µM, SYPRO® Orange (Sigma Aldrich) at […], and fragments at 500 µM. Fluorescence was followed with Cy3 and SYAL filters. Denaturation curves were collected using MxPro-Mx3005P v4.10 software and analyzed using the implemented version of wTSA-CRAFT[36].

APH(2”)-IVa [6] = biological target: T1, APH(2”)-IVa; assay: biochemical; assay type: binding
Description: ITC experiments were performed on three different machines: a MicroCal VP-ITC (GE Healthcare), a MicroCal PEAQ-ITC (Malvern), or a MicroCal iTC200 (Malvern). The architecture and principles are similar for the three different systems. The experiments were carried out in Buffer HEPES at 25 °C. Titrations consisted of twenty injections of 1.5 µL inhibitors, every 120 seconds, into the measuring cell using the injection syringe rotating at 750 rpm. The data were analyzed using the MicroCal PEAQ-ITC software (v. 1.52, Malvern) using the single-site binding model to fit the raw data. The standard error of the Kd value was determined from measurements made on distinct samples (n indicated in the text).

APH(2”)-IVa [7] = biological target: T1, APH(2”)-IVa
12 different APHs = biological target: 12 different APHs; design: method as in PMID 23758273; details: all the APHs tested; cited from earlier work
APH(2”)-Ib = system: APH(2”)-Ib; design: method as in PMID 11514228; details: at 1 mM; cited from earlier work
APH(3’)-IIIa [8] = system: APH(3’)-IIIa; design: method as in PMID 11514228; details: cited from earlier work
[9] = system: P. aeruginosa clinical isolates; assay: MIC by broth micro-dilution; assay type: cell-based
S. aureus C0032 [10] = assay: MIC by broth micro-dilution; assay type: cell-based; details: S. aureus C0032, aph(3')-IIIa ant(6)
S. aureus C0032 [11] = assay: Checkerboard assay of 83 with kanamycin A; assay type: cell-based; details: for checkerboard well reading (growth): Supp. Figure 3 C, 83 0 µg.mL-1
P. aeruginosa C0307 = assay: Checkerboard assay of 83 with kanamycin A; assay type: cell-based; details: for MIC of kanamycin A: [83] 0 µg mL^−1, 18 h at 37 °C; for checkerboard well reading (growth): 83 0 µg.mL-1

T1 sequence (O68183 1-301): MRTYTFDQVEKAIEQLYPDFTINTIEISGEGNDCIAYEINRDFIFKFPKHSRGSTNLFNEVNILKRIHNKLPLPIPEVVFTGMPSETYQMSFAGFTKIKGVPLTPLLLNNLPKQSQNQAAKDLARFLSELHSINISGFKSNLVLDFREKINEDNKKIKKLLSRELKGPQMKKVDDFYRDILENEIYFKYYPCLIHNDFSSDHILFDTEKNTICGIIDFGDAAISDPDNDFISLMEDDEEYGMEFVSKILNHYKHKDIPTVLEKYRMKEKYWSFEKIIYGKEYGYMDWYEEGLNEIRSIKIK

Nc1ncnc2c1ncn2[C@@H]1O[C@H](COP(=O)(O)OP(=O)(O)OP(=O)(O)O)[C@@H](O)[C@H]1O [ATP, adenosine 5’-triphosphate]
Km (APH(2”)-IVa [1]): 101 µM
Km (APH(3’)-IIa): 45 µM
Km (APH(3’)-IIb): 24 µM

NCCNS(=O)(=O)c1ccc(Cl)c2ccncc12 [CKI-7]
Ki (APH(3’)-IIIa [2]): 66 µM
Ki (APH(9)-Ia): 159 µM

CC(C)(C)n1nc(-c2cccc3ccccc23)c2c(N)ncnc21 [Compound 1-NA-PP1]
Ki (APH(3’)-Ia): 21.5 µM
Rescue activity of kanamycin A [3]: demonstrated rescue activity of kanamycin A

CC(C)(C)n1nc(Cc2cccc3ccccc23)c2c(N)ncnc21 [Compound 1-NM-PP1]
Ki (APH(3’)-Ia): 34.4 µM
Rescue activity of kanamycin A [3]: demonstrated rescue activity of kanamycin A

O=C(O)c1cc(NC2CC2)ncc1Cl [Compound 36]
Ki (APH(2”)-IVa [4]): 18.2 µM
ΔTm at 500 µM (APH(2”)-IVa [5]): 2.69 °C
Kd (APH(2”)-IVa [6]): 37.8 µM
kss (APH(2”)-IVa [7]; [36] = 20 µM, [MgATP] 0.1 mM): 0.130 s⁻¹
kss (APH(2”)-IVa [7]; [36] = 20 µM, [MgATP] 0.2 mM): 0.200 s⁻¹
kss (APH(2”)-IVa [7]; [36] = 20 µM, [MgATP] 0.3 mM): 0.240 s⁻¹
kss (APH(2”)-IVa [7]; [36] = 20 µM, [MgATP] 0.4 mM): 0.278 s⁻¹
kss (APH(2”)-IVa [7]; [36] = 50 µM, [MgATP] 0.1 mM): 0.097 s⁻¹
kss (APH(2”)-IVa [7]; [36] = 50 µM, [MgATP] 0.2 mM): 0.138 s⁻¹
kss (APH(2”)-IVa [7]; [36] = 50 µM, [MgATP] 0.3 mM): 0.175 s⁻¹
kss (APH(2”)-IVa [7]; [36] = 50 µM, [MgATP] 0.4 mM): 0.207 s⁻¹
kss (APH(2”)-IVa [7]; [36] = 100 µM, [MgATP] 0.1 mM): 0.067 s⁻¹
kss (APH(2”)-IVa [7]; [36] = 100 µM, [MgATP] 0.2 mM): 0.101 s⁻¹
kss (APH(2”)-IVa [7]; [36] = 100 µM, [MgATP] 0.3 mM): 0.133 s⁻¹
kss (APH(2”)-IVa [7]; [36] = 100 µM, [MgATP] 0.4 mM): 0.156 s⁻¹

O=c1c(O)c(-c2ccc(O)c(O)c2)oc2cc(O)cc(O)c12 [Quercetin, quercetin]
Ki (12 different APHs): 0.07 to 25 µM

COC[C@H]1OC(=O)c2coc3c2[C@@]1(C)C1=C(C3=O)[C@@H]2CCC(=O)[C@@]2(C)C[C@H]1OC(C)=O [Wortmannin, wortmannin]
Inhibition (APH(2”)-Ib): 90%
Inhibition (APH(3’)-IIIa [8]): did not affect

kanamycin A [reference compound]
MIC ([9]; P. aeruginosa 1676, aph(3')-IIb): 128 mg/L
MIC ([9]; P. aeruginosa 1761, aph(3')-IIb): 128 mg/L
MIC ([9]; P. aeruginosa 1766, aph(3')-IIb): 128 mg/L
MIC ([9]; P. aeruginosa 1781, aph(3')-IIb): 512 mg/L
MIC ([9]; P. aeruginosa 1869, aph(3')-IIb aac(6')-Ib3): 1024 mg/L
MIC ([9]; P. aeruginosa C0214, aph(3')-IIb): 256 to 512 mg/L
MIC ([9]; P. aeruginosa C0307, aph(3')-IIb): 64 to 128 mg/L
MIC ([9]; P. aeruginosa C0307, aph(3')-IIb, listed as Kanamycin A): 64 to 128 mg/L
MIC (S. aureus C0032 [10]): 4096 mg/L
MIC of kanamycin A (S. aureus C0032 [11]; 0.125 µg mL^−1 imipenem, [83] 0 µg mL^−1, 18 h at 37 °C): 4096 mg/L
checkerboard well reading (growth) (S. aureus C0032 [11]; kanamycin A 2 µg.mL-1): 0.337
checkerboard well reading (growth) (S. aureus C0032 [11]; kanamycin A 4 µg.mL-1): 0.322
checkerboard well reading (growth) (S. aureus C0032 [11]; kanamycin A 8 µg.mL-1): 0.304
checkerboard well reading (growth) (S. aureus C0032 [11]; kanamycin A 16 µg.mL-1): 0.292
checkerboard well reading (growth) (S. aureus C0032 [11]; kanamycin A 32 µg.mL-1): 0.272
checkerboard well reading (growth) (S. aureus C0032 [11]; kanamycin A 64 µg.mL-1): 0.258
checkerboard well reading (growth) (S. aureus C0032 [11]; kanamycin A 128 µg.mL-1): 0.312
MIC of kanamycin A (P. aeruginosa C0307; 0 µg mL^−1 imipenem): 64 mg/L
MIC of kanamycin A (P. aeruginosa C0307; 0.05 µg mL^−1 imipenem): 64 mg/L
checkerboard well reading (growth) (P. aeruginosa C0307; Supp. Figure 3 A, kanamycin A 2 µg.mL-1): 1.208
checkerboard well reading (growth) (P. aeruginosa C0307; Supp. Figure 3 A, kanamycin A 4 µg.mL-1): 1.193
checkerboard well reading (growth) (P. aeruginosa C0307; Supp. Figure 3 A, kanamycin A 8 µg.mL-1): 1.188
checkerboard well reading (growth) (P. aeruginosa C0307; Supp. Figure 3 A, kanamycin A 16 µg.mL-1): 1.223
checkerboard well reading (growth) (P. aeruginosa C0307; Supp. Figure 3 A, kanamycin A 32 µg.mL-1): 1.192
checkerboard well reading (growth) (P. aeruginosa C0307; Supp. Figure 3 A, kanamycin A 64 µg.mL-1): 0.162
checkerboard well reading (growth) (P. aeruginosa C0307; Supp. Figure 3 A, kanamycin A 128 µg.mL-1): 0.039
checkerboard well reading (growth) (P. aeruginosa C0307; Supp. Figure 3 B, kanamycin A 2 µg.mL-1): 1.210
checkerboard well reading (growth) (P. aeruginosa C0307; Supp. Figure 3 B, kanamycin A 4 µg.mL-1): 1.193
checkerboard well reading (growth) (P. aeruginosa C0307; Supp. Figure 3 B, kanamycin A 8 µg.mL-1): 1.143
checkerboard well reading (growth) (P. aeruginosa C0307; Supp. Figure 3 B, kanamycin A 16 µg.mL-1): 1.167
checkerboard well reading (growth) (P. aeruginosa C0307; Supp. Figure 3 B, kanamycin A 32 µg.mL-1): 1.151
checkerboard well reading (growth) (P. aeruginosa C0307; Supp. Figure 3 B, kanamycin A 64 µg.mL-1): 0.174
checkerboard well reading (growth) (P. aeruginosa C0307; Supp. Figure 3 B, kanamycin A 128 µg.mL-1): 0.043

— paper PMC12749166, “Fragment-based drug design of a bacterial kinase inhibitor capable of increasing the antibiotic sensitivity of clinical isolates” (Communications Chemistry, 2025)
